Test results taken from patent publication US4245106A, “Process for the preparation of 1-alkyl-3-aryl-4-pyrazolecarboxylates” (Monsanto Company, priority 1979, dated 1981).

Columns and labels:
Format in all cases: in vivo
Barnyard grass [1] = assay: pre-emergent herbicidal activity test; conditions: *11.2 Kg/Ha; observed approximately 14 days after treatment
Description: (§1) Table II summarizes results of tests conducted to determine the pre-emergent as well as the post-emergent herbicidal activity of the compounds. The pre-emergent test was conducted as follows:
(§2) A good grade of top soil was placed in aluminum pans and compacted to a depth of three-eighths to one-half inch from the top of the pan. On the top of the soil was placed a predetermined number of seeds or vegetative propagules of various plant species. The soil required to level fill the pans after seeding or adding vegetative propagules was weighed into a pan. A known amount of the active ingredient applied in a solvent or as a wettable powder and the soil were thoroughly mixed, and used as a cover layer for prepared pans. After treatment the pans were moved into a greenhouse bench where they were watered from below as needed to give adequate moisture for germination and growth.
(§3) A herbicial rating code was used to signify the extent of phytotoxicity of each species. The rating are defined as follows: […]

Bromus tectorum [2] = assay: pre-emergent herbicidal activity test; conditions: *11.2 Kg/Ha; observed approximately 14 days after treatment
Description: as §1, §2, §3

Canada Thistle [3] = assay: pre-emergent herbicidal activity test; conditions: *11.2 Kg/Ha; observed approximately 14 days after treatment
Description: as §1, §2, §3

Cocklebur [4] = assay: pre-emergent herbicidal activity test; conditions: *11.2 Kg/Ha; observed approximately 14 days after treatment
Description: as §1, §2, §3

Johnsongrass [5] = assay: pre-emergent herbicidal activity test; conditions: *11.2 Kg/Ha; observed approximately 14 days after treatment
Description: as §1, §2, §3

Lambsquarter [6] = assay: pre-emergent herbicidal activity test; conditions: *11.2 Kg/Ha; observed approximately 14 days after treatment
Description: as §1, §2, §3

Morningglory [7] = assay: pre-emergent herbicidal activity test; conditions: *11.2 Kg/Ha; observed approximately 14 days after treatment
Description: as §1, §2, §3

Nutsedge [8] = assay: pre-emergent herbicidal activity test; conditions: *11.2 Kg/Ha; observed approximately 14 days after treatment
Description: as §1, §2, §3

Quackgrass [9] = assay: pre-emergent herbicidal activity test; conditions: *11.2 Kg/Ha; observed approximately 14 days after treatment
Description: as §1, §2, §3

Smartweed [10] = assay: pre-emergent herbicidal activity test; conditions: *11.2 Kg/Ha; observed approximately 14 days after treatment
Description: as §1, §2, §3

Velvetleaf [11] = assay: pre-emergent herbicidal activity test; conditions: *11.2 Kg/Ha; observed approximately 14 days after treatment
Description: as §1, §2, §3

Barnyard grass [12] = assay: post-emergent herbicidal activity test
Description: (§4) The post-emergent tests were conducted as follows. The active ingredients are applied in spray form to two or three-week old specimens of various plant species. The spray, a solution or wettable powder suspension containing the appropriate rate of active ingredient to give the desired test rate and a surfactant, is applied to the plants. The treated plants are placed in a greenhouse and unless otherwise noted approximately four weeks later the effects are observed and recorded.

Bromus tectorum [13] = assay: post-emergent herbicidal activity test
Description: as §4

Canada Thistle [14] = assay: post-emergent herbicidal activity test
Description: as §4

Cocklebur [15] = assay: post-emergent herbicidal activity test
Description: as §4

Johnsongrass [16] = assay: post-emergent herbicidal activity test
Description: as §4

Lambsquarter [17] = assay: post-emergent herbicidal activity test
Description: as §4

Morningglory [18] = assay: post-emergent herbicidal activity test
Description: as §4

Nutsedge [19] = assay: post-emergent herbicidal activity test
Description: as §4

Quackgrass [20] = assay: post-emergent herbicidal activity test
Description: as §4

Smartweed [21] = assay: post-emergent herbicidal activity test
Description: as §4

Velvetleaf [22] = assay: post-emergent herbicidal activity test
Description: as §4

[23] = *11.2 Kg/Ha, observed approximately 14 days after treatment
[24] = 11.2 Kg/Ha, approximately four weeks later
Also: ranges in brackets are in %.

SMILES	Pre-Emergent herbicidal rating, K Barnyard grass (Barnyard grass [1])	Pre-Emergent herbicidal rating, J Bromus tectorum (Bromus tectorum [2])	Pre-Emergent herbicidal rating, A Canada Thistle (Canada Thistle [3])	Pre-Emergent herbicidal rating, B Cocklebur (Cocklebur [4])	Pre-Emergent herbicidal rating, I Johnsongrass (Johnsongrass [5])	Pre-Emergent herbicidal rating, E Lambsquarter (Lambsquarter [6])	Pre-Emergent herbicidal rating, D Morningglory (Morningglory [7])	Pre-Emergent herbicidal rating, G Nutsedge (Nutsedge [8])	Pre-Emergent herbicidal rating, H Quackgrass (Quackgrass [9])	Pre-Emergent herbicidal rating, F Smartweed (Smartweed [10])	Pre-Emergent herbicidal rating, C Velvetleaf (Velvetleaf [11])	Post-Emergent herbicidal rating, K Barnyard grass (Barnyard grass [12]; [23])	Post-Emergent herbicidal rating, J Bromus tectorum (Bromus tectorum [13]; [23])	Post-Emergent herbicidal rating, A Canada Thistle (Canada Thistle [14]; [23])	Post-Emergent herbicidal rating, B Cocklebur (Cocklebur [15]; [23])	Post-Emergent herbicidal rating, I Johnsongrass (Johnsongrass [16]; [23])	Post-Emergent herbicidal rating, E Lambsquarter (Lambsquarter [17]; [23])	Post-Emergent herbicidal rating, D Morningglory (Morningglory [18]; [23])	Post-Emergent herbicidal rating, G Nutsedge (Nutsedge [19]; [23])	Post-Emergent herbicidal rating, H Quackgrass (Quackgrass [20]; [23])	also measured
Cn1cc(C(=O)OCC2CC(F)(F)C2(F)F)c(-c2cccc(C(F)(F)F)c2)n1 (stereo not drawn) [Example 18]	1 (25-49)	1 (25-49)	1 (25-49)	0 (0-24)	0 (0-24)	2 (50-74)	1 (25-49)	0 (0-24)	0 (0-24)	2 (50-74)	1 (25-49)	1 (25-49)	1 (25-49)	1 (25-49)	1 (25-49)	1 (25-49)	2 (50-74)	2 (50-74)	0 (0-24)	1 (25-49)	Post-Emergent herbicidal rating, F Smartweed (Smartweed [21]; [23]): 1 (25-49); Post-Emergent herbicidal rating, C Velvetleaf (Velvetleaf [22]; [23]): 2 (50-74)
Cn1cc(C(=O)OCCOc2ccccc2)c(-c2cccc(C(F)(F)F)c2)n1 [Example 22]	0 (0-24)	0 (0-24)	3 (75-100)	0 (0-24)	0 (0-24)	3 (75-100)	1 (25-49)	0 (0-24)	0 (0-24)	0 (0-24)	0 (0-24)	0 (0-24)	0 (0-24)	1 (25-49)	0 (0-24)	0 (0-24)	0 (0-24)	0 (0-24)	0 (0-24)	0 (0-24)	Post-Emergent herbicidal rating, F Smartweed (Smartweed [21]; [23]): 0 (0-24); Post-Emergent herbicidal rating, C Velvetleaf (Velvetleaf [22]; [23]): 0 (0-24)
CCOC(=O)c1cn(C)nc1-c1ccc(OC)cc1 [Example 31]	0 (0-24)	0 (0-24)	0 (0-24)	0 (0-24)	0 (0-24)	0 (0-24)	0 (0-24)	0 (0-24)	0 (0-24)	0 (0-24)	0 (0-24)										Post-Emergent herbicidal rating, K Barnyard grass (Barnyard grass [12]; [24]): 1 (25-49); Post-Emergent herbicidal rating, J Bromus tectorum (Bromus tectorum [13]; [24]): 0 (0-24); Post-Emergent herbicidal rating, A Canada Thistle (Canada Thistle [14]; [24]): 0 (0-24); Post-Emergent herbicidal rating, B Cocklebur (Cocklebur [15]; [24]): 0 (0-24); Post-Emergent herbicidal rating, I Johnsongrass (Johnsongrass [16]; [24]): 0 (0-24); Post-Emergent herbicidal rating, E Lambsquarter (Lambsquarter [17]; [24]): 4 (100); Post-Emergent herbicidal rating, D Morningglory (Morningglory [18]; [24]): 1 (25-49); Post-Emergent herbicidal rating, G Nutsedge (Nutsedge [19]; [24]): 0 (0-24); Post-Emergent herbicidal rating, H Quackgrass (Quackgrass [20]; [24]): 0 (0-24); Post-Emergent herbicidal rating, F Smartweed (Smartweed [21]; [24]): 4 (100); Post-Emergent herbicidal rating, C Velvetleaf (Velvetleaf [22]; [24]): 1 (25-49)
